Conditions: for molar entropy: 101.33 kPa; for Normal melting temperature: DTA

OC[C@@H](O)[C@H](O)[C@@H](O)CO [xylitol]
Conditions	molar entropy [J/K/mol]
1 K, Crystal, relaxation calorimetry	0.0003173
2 K, Crystal, relaxation calorimetry	0.002178
3 K, Crystal, relaxation calorimetry	0.007217
4 K, Crystal, relaxation calorimetry	0.01724
5 K, Crystal, relaxation calorimetry	0.03429
6 K, Crystal, relaxation calorimetry	0.06064
7 K, Crystal, relaxation calorimetry	0.09884
8 K, Crystal, relaxation calorimetry	0.1517
9 K, Crystal, relaxation calorimetry	0.2221
10 K, Crystal, relaxation calorimetry	0.3121
15 K, Crystal, relaxation calorimetry	1.099
20 K, Crystal, relaxation calorimetry	2.464
25 K, Crystal, relaxation calorimetry	4.334
30 K, Crystal, relaxation calorimetry	6.612
35 K, Crystal, relaxation calorimetry	9.217
40 K, Crystal, relaxation calorimetry	12.09
45 K, Crystal, relaxation calorimetry	15.19
50 K, Crystal, relaxation calorimetry	18.47
55 K, Crystal, relaxation calorimetry	21.88
60 K, Crystal, relaxation calorimetry	25.4
65 K, Crystal, relaxation calorimetry	29.01
70 K, Crystal, relaxation calorimetry	32.7
75 K, Crystal, relaxation calorimetry	36.44
80 K, Crystal, relaxation calorimetry	40.21
85 K, Crystal, relaxation calorimetry	44.01
90 K, Crystal, relaxation calorimetry	47.82
95 K, Crystal, relaxation calorimetry	51.65
100 K, Crystal, relaxation calorimetry	55.48
110 K, Crystal, relaxation calorimetry	63.13
120 K, Crystal, relaxation calorimetry	70.74
130 K, Crystal, relaxation calorimetry	78.31
140 K, Crystal, relaxation calorimetry	85.82
150 K, Crystal, relaxation calorimetry	93.27
160 K, Crystal, relaxation calorimetry	100.65
170 K, Crystal, relaxation calorimetry	107.96
180 K, Crystal, relaxation calorimetry	115.21
190 K, Crystal, relaxation calorimetry	122.4
200 K, Crystal, relaxation calorimetry	129.55
210 K, Crystal, relaxation calorimetry	136.64
220 K, Crystal, relaxation calorimetry	143.7
230 K, Crystal, relaxation calorimetry	150.72
240 K, Crystal, relaxation calorimetry	157.72
250 K, Crystal, relaxation calorimetry	164.69
260 K, Crystal, relaxation calorimetry	171.65
270 K, Crystal, relaxation calorimetry	178.59
273.15 K, Crystal, relaxation calorimetry	180.78
280 K, Crystal, relaxation calorimetry	185.53
290 K, Crystal, relaxation calorimetry	192.47
298.15 K, Crystal, relaxation calorimetry	198.13
300 K, Crystal, relaxation calorimetry	199.41
305 K, Crystal, Small sample (50 mg) DSC	202.93
310 K, Crystal, Small sample (50 mg) DSC	206.47
315 K, Crystal, Small sample (50 mg) DSC	210.02
320 K, Crystal, Small sample (50 mg) DSC	213.58
325 K, Crystal, Small sample (50 mg) DSC	217.15
330 K, Crystal, Small sample (50 mg) DSC	220.72
335 K, Crystal, Small sample (50 mg) DSC	224.31
340 K, Crystal, Small sample (50 mg) DSC	227.9
345 K, Crystal, Small sample (50 mg) DSC	231.52
350 K, Crystal, Small sample (50 mg) DSC	235.17
355 K, Crystal, Small sample (50 mg) DSC	238.92
360 K, Crystal, Small sample (50 mg) DSC	243.05
380 K, Liquid, Small sample (50 mg) DSC	367.99
385 K, Liquid, Small sample (50 mg) DSC	373.77
390 K, Liquid, Small sample (50 mg) DSC	379.42
395 K, Liquid, Small sample (50 mg) DSC	385
400 K, Liquid, Small sample (50 mg) DSC	390.52
405 K, Liquid, Small sample (50 mg) DSC	395.99
410 K, Liquid, Small sample (50 mg) DSC	401.41
415 K, Liquid, Small sample (50 mg) DSC	406.78
420 K, Liquid, Small sample (50 mg) DSC	412.1
425 K, Liquid, Small sample (50 mg) DSC	417.37
430 K, Liquid, Small sample (50 mg) DSC	422.59
435 K, Liquid, Small sample (50 mg) DSC	427.75

Conditions	Normal melting temperature [°C]
Crystal	93.0

OC[C@@H](O)[C@@H](O)[C@H](O)[C@H](O)CO [D-mannitol]
Conditions	molar entropy [J/K/mol]
1 K, Crystal, relaxation calorimetry	0.000631
2 K, Crystal, relaxation calorimetry	0.002978
3 K, Crystal, relaxation calorimetry	0.008828
4 K, Crystal, relaxation calorimetry	0.02011
5 K, Crystal, relaxation calorimetry	0.03893
6 K, Crystal, relaxation calorimetry	0.06761
7 K, Crystal, relaxation calorimetry	0.1087
8 K, Crystal, relaxation calorimetry	0.165
9 K, Crystal, relaxation calorimetry	0.2395
10 K, Crystal, relaxation calorimetry	0.3351
15 K, Crystal, relaxation calorimetry	1.202
20 K, Crystal, relaxation calorimetry	2.796
25 K, Crystal, relaxation calorimetry	5.087
30 K, Crystal, relaxation calorimetry	7.955
35 K, Crystal, relaxation calorimetry	11.26
40 K, Crystal, relaxation calorimetry	14.89
45 K, Crystal, relaxation calorimetry	18.76
50 K, Crystal, relaxation calorimetry	22.8
55 K, Crystal, relaxation calorimetry	26.97
60 K, Crystal, relaxation calorimetry	31.23
65 K, Crystal, relaxation calorimetry	35.57
70 K, Crystal, relaxation calorimetry	39.94
75 K, Crystal, relaxation calorimetry	44.34
80 K, Crystal, relaxation calorimetry	48.76
85 K, Crystal, relaxation calorimetry	53.19
90 K, Crystal, relaxation calorimetry	57.61
95 K, Crystal, relaxation calorimetry	62.02
100 K, Crystal, relaxation calorimetry	66.42
110 K, Crystal, relaxation calorimetry	75.17
120 K, Crystal, relaxation calorimetry	83.84
130 K, Crystal, relaxation calorimetry	92.42
140 K, Crystal, relaxation calorimetry	100.91
150 K, Crystal, relaxation calorimetry	109.31
160 K, Crystal, relaxation calorimetry	117.62
170 K, Crystal, relaxation calorimetry	125.86
180 K, Crystal, relaxation calorimetry	134.02
190 K, Crystal, relaxation calorimetry	142.11
200 K, Crystal, relaxation calorimetry	150.14
210 K, Crystal, relaxation calorimetry	158.13
220 K, Crystal, relaxation calorimetry	166.06
230 K, Crystal, relaxation calorimetry	173.95
240 K, Crystal, relaxation calorimetry	181.8
250 K, Crystal, relaxation calorimetry	189.63
260 K, Crystal, relaxation calorimetry	197.43
270 K, Crystal, relaxation calorimetry	205.2
273.15 K, Crystal, relaxation calorimetry	207.65
280 K, Crystal, relaxation calorimetry	212.96
290 K, Crystal, relaxation calorimetry	220.71
298.15 K, Crystal, relaxation calorimetry	227.01
300 K, Crystal, relaxation calorimetry	228.44
305 K, Crystal, Small sample (50 mg) DSC	232.31
310 K, Crystal, Small sample (50 mg) DSC	236.19
315 K, Crystal, Small sample (50 mg) DSC	240.08
320 K, Crystal, Small sample (50 mg) DSC	243.99
325 K, Crystal, Small sample (50 mg) DSC	247.9
330 K, Crystal, Small sample (50 mg) DSC	251.82
335 K, Crystal, Small sample (50 mg) DSC	255.74
340 K, Crystal, Small sample (50 mg) DSC	259.67
345 K, Crystal, Small sample (50 mg) DSC	263.61
350 K, Crystal, Small sample (50 mg) DSC	267.55
355 K, Crystal, Small sample (50 mg) DSC	271.49
360 K, Crystal, Small sample (50 mg) DSC	275.43
365 K, Crystal, Small sample (50 mg) DSC	279.37
370 K, Crystal, Small sample (50 mg) DSC	283.31
375 K, Crystal, Small sample (50 mg) DSC	287.25
380 K, Crystal, Small sample (50 mg) DSC	291.19
385 K, Crystal, Small sample (50 mg) DSC	295.12
390 K, Crystal, Small sample (50 mg) DSC	299.04
395 K, Crystal, Small sample (50 mg) DSC	302.96
400 K, Crystal, Small sample (50 mg) DSC	306.87
405 K, Crystal, Small sample (50 mg) DSC	310.78
410 K, Crystal, Small sample (50 mg) DSC	314.68
415 K, Crystal, Small sample (50 mg) DSC	318.58
420 K, Crystal, Small sample (50 mg) DSC	322.47
425 K, Crystal, Small sample (50 mg) DSC	326.38
430 K, Crystal, Small sample (50 mg) DSC	330.31
435 K, Crystal, Small sample (50 mg) DSC	334.63
450 K, Liquid, Small sample (50 mg) DSC	463.49
455 K, Liquid, Small sample (50 mg) DSC	469.61
460 K, Liquid, Small sample (50 mg) DSC	475.21
465 K, Liquid, Small sample (50 mg) DSC	480.73
470 K, Liquid, Small sample (50 mg) DSC	486.2
475 K, Liquid, Small sample (50 mg) DSC	491.61
480 K, Liquid, Small sample (50 mg) DSC	496.96
485 K, Liquid, Small sample (50 mg) DSC	502.25
490 K, Liquid, Small sample (50 mg) DSC	507.49

Conditions	Normal melting temperature [°C]
Crystal	167.47
